Biological target: Bile salt export pump (Homo sapiens, UniProt O95342)
Assay: ChEBML_1661982
Description: Inhibition of human BSEP expressed in fall armyworm sf9 cell plasma membrane vesicles assessed as reduction in vesicle-associated [3H]-taurocholate transport preincubated for 10 mins prior to ATP addition measured after 15 mins in presence of [3H]-taurocholate by topcount based membrane vesicle transport assay

IC50: > 135 µM
Compound: O=C1OC2(c3ccc(O)cc3Oc3cc(O)ccc32)c2ccccc21

— BindingDB's records for doi:10.1093/toxsci/kfq269 (Amgen, 2010)
